1 substance from patent US6752989B1, “Tooth surface treatment agent” (3M ESPE AG, priority 1999, dated 2004) can be followed below.

The test system of this assay is fluorescence-marked casein. Kind of assay: Proteolytic pepsin activity with fluorescence-marked casein after contact with ground bovine dentine. Type of assay: biochemical. The following applies: 2.5 ml of 10 μg/ml solution, pH 2.0 buffer, on 1 g ground bovine dentine for 20 min; excitation 480 nm, emission 510 nm. The procedure: 2.5 ml of a pepsin solution (10 μg/ml) in a 20 mM disodium hydrogen phosphate buffer (pH 2.0) were added to 1 g of ground bovine dentine and allowed to remain there for 20 min. under agitation. Subsequently the mixture was centrifuged for 1 min. in a Heraeus Biofuge Pico at 10,000 rpm. 900 μl of the residue were mixed with 12 μg of fluorescence-marked casein (Molecular Probes company, Göttingen) in 100 μl 20 mM of disodium hydrogen phosphate buffer (pH 2.0). The presence of proteolytic pepsin activity is manifested in the increase in fluorescence with an excitation wave length of 480 nm and with an emission wave length of 510 nm.

As for pepsin, the “proteolytic pepsin activity (increase in fluorescence)” value is “no pepsin activity was determinable any more”.
